Values after ≈ are worked out from the molar mass of the structure shown. Read-outs that look alike come from different tables or passages of the source.
Legend:
[1] = Cytotoxicity assay (HepG2, CellTiter-Blue cell viability); format: cell-based; conditions: human
Method: The cytotoxicity of compounds of present invention was assessed by HepG2 assay. HepG2 cells (ATCC HB-8065™) were seeded into 96-well plates (1.2×10^4 cells per well) and treated with compounds for 3 days, cell viability was measured at day 3 post compound treatment using the CellTiter-Blue® Cell Viability Assay (Promega, Cat. No. G8082). 20 μL of Cell titer blue buffer were added to each well of the cells, which were incubated for 3 hours at 37° C., and the fluorescence value was measured by a plate reader (Molecular Device SpectraMax M2). The CC50 value of each compound is plotted with GraphPad Prism using four parameter logistic equation.

[2] = Lyophilisation solubility assay (LYSA); format: physicochemical; conditions: phosphate buffer, pH 6.5, aqueous buffer, thermodynamic from solid, 0.05 M phosphate buffer, HPLC-UV
In short: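 Read-out is HPLC-UV of the filtered solution and its 1/10 dilution. The dried residue of a 10 mM DMSO stock was redissolved in 0.05 M pH 6.5 phosphate buffer, then stirred 1 h, shaken 2 h and held overnight. Run in duplicate.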

A. baumannii (ATCC17978) = assay: 50% growth inhibitory concentration (IC50) determination assay; format: cell-based; conditions: Acinetobacter baumannii, ATCC17978, A. baumannii ATCC17978; Iso-Sensitest broth; 0.098 = detection limit
In short: (§1)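 Growth was tracked as optical density at 600 nm every 20 minutes for 16 h at 35±2° C, giving IC50 values. Inocula of ~5×10^5 CFU/mL in Iso-Sensitest broth faced two-fold compound dilutions spanning 50 to 0.097 μM final.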

S. aureus (ATCC29213) = assay: as above; format: cell-based; conditions: Staphylococcus aureus, Iso-Sensitest broth, 0.098 = detection limit
In short: as §1

[3] = tested on: K. pneumoniae (ATCC10031); assay: as above; format: cell-based; conditions: Klebsiella pneumoniae, Iso-Sensitest broth, 0.098 = detection limit
In short: as §1

[4] = HepG2 cells, 3 days treatment, "*": the detection limit, read-out: CC50

Structure (SMILES)	CC50 at 3 days [1, 4] [nM]	CC50 at 3 days [1] [nM]	solubility thermodynamic [2] [µg/mL]	IC50 (A. baumannii (ATCC17978)) [µM]	IC50 (S. aureus (ATCC29213)) [µM]	IC50 [3] [µM]
CNc1cc(F)c(F)c2c1[nH]c1ncc(-c3cnc4c(c3)c(=O)c(C(=O)O)cn4CC3CNCCO3)c(N3CCOCC3)c12 (stereo not shown) [Example 1.42]	> 100000	–	–	–	–	–
CNc1cc(F)c(F)c2c1[nH]c1ncc(-c3cnc4c(c3)c(=O)c(C(=O)O)cn4C)c(N3CCC4(CN(C)C4)C3)c12 [Example 1.228]	> 100000	–	–	–	–	–
CNc1cc(F)c(F)c2c1[nH]c1ncc(-c3cnc4c(c3)c(=O)c(C(=O)O)cn4CC3COCCN3)c(N(C)CCOC)c12 (stereo not shown) [Example 1.41]	90200	–	–	–	–	–
CCn1cc(C(=O)O)c(=O)c2cc(-c3cnc4[nH]c5c(NC)cc(F)c(F)c5c4c3N3CC4CC(C3)O4)cnc21 [Example 1.128]	–	27100	–	–	–	–
CCNc1cc(F)cc2c1[nH]c1ncc(-c3cnc4c(c3)c(=O)c(C(=O)O)cn4C3CCNC3)c(N3CCOCC3)c12 (stereo not shown) [Example 1.34]	> 100000	–	–	–	–	–
CNc1cc(F)cc2c1[nH]c1ncc(-c3cnc4c(c3)c(=O)c(C(=O)O)cn4C(C)(CO)CO)c(N3CCOCC3)c12 [Example 1.44]	> 100000	–	–	–	–	–
CNc1cc(F)cc2c1[nH]c1ncc(-c3cnc4c(c3)c(=O)c(C(=O)O)cn4C)c(N3CCC(O)(C(F)(F)F)C3)c12 (stereo not shown) [Example 1.25]	62600	–	–	–	–	–
CNc1cc(F)cc2c1[nH]c1ncc(-c3cnc4c(c3)c(=O)c(C(=O)O)cn4C)c(N3CCC(O)C3)c12 (stereo not shown) [Example 1.47]	> 100000	–	–	–	–	–
CNc1cc(F)c(F)c2c1[nH]c1ncc(-c3cnc4c(c3)c(=O)c(C(=O)O)cn4C3CCNC3)c(N3CCO[C@@H](C)C3)c12 (stereo partly shown) [Example 1.251]	> 100000	–	–	–	–	–
CNc1c(Cl)c(F)cc2c1[nH]c1ncc(-c3cnc4c(c3)c(=O)c(C(=O)O)cn4C3CCNC3)c(N(C)C)c12 (stereo not shown) [Example 1.68]	26500	–	–	–	–	–
CNc1cc(F)c(F)c2c1[nH]c1ncc(-c3cnc4c(c3)c(=O)c(C(=O)O)cn4C)c(N3CC4[C@H](CCN4CCCO)C3)c12 (stereo partly shown) [Example 1.260]	–	–	277 (≈ 459 µM)	0.558	< 0.098	< 0.098
CNc1cc(F)cc2c1[nH]c1ncc(-c3cnc4c(c3)c(=O)c(C(=O)O)cn4C)c(N3CCC4(C)CN(C)CC34)c12 (stereo not shown) [Example 1.272]	–	–	> 632	0.112	< 0.098	< 0.098
CNc1cc(F)cc2c1[nH]c1ncc(-c3cnc4c(c3)c(=O)c(C(=O)O)cn4NC)c(N3CCC4(C)CN(C)CC34)c12 (stereo not shown) [Example 1.273]	–	–	468 (≈ 820 µM)	0.254	< 0.098	< 0.098
CNc1cc(F)c(F)c2c1[nH]c1ncc(-c3cnc4c(c3)c(=O)c(C(=O)O)cn4C)c(N3CCC(O)(CN(C)C)C3)c12 (stereo not shown) [Example 1.100]	–	–	632 (≈ 1090 µM)	0.9	0.272	< 0.098
CNc1cc(F)c(F)c2c1[nH]c1ncc(-c3cnc4c(c3)c(=O)c(C(=O)O)cn4C)c(N3CCC(N(C)CCOC)C3)c12 (stereo not shown) [Example 1.198]	–	–	56 (≈ 94.7 µM)	0.215	< 0.098	< 0.098
CNc1cc(F)cc2c1[nH]c1ncc(-c3cnc4c(c3)c(=O)c(C(=O)O)cn4C)c(N3CC[C@H]4CCN(C)[C@H]4C3)c12 [Example 3.18A]	–	–	172 (≈ 310 µM)	0.081	< 0.098	< 0.098
CNc1cc(F)c(F)c2c1[nH]c1ncc(-c3cnc4c(c3)c(=O)c(C(=O)O)cn4CC3COCCN3)c(N3CCOCC3)c12 (stereo not shown) [Example 1.31]	49000	–	–	–	–	–

Structure (SMILES)	CC50 at 3 days [1, 4] [nM]	CC50 at 3 days [1] [nM]	solubility thermodynamic [2] [µg/mL]	IC50 (A. baumannii (ATCC17978)) [µM]	IC50 (S. aureus (ATCC29213)) [µM]	IC50 [3] [µM]
CNc1cc(Cl)cc2c1[nH]c1ncc(-c3cnc4c(c3)c(=O)c(C(=O)O)cn4C)c(N3CCC(N(C)C)C3)c12 (stereo not shown) [Example 1.139]	–	–	20 (≈ 36.6 µM)	0.116	< 0.098	< 0.098
CNc1cc(F)cc2c1[nH]c1ncc(-c3cnc4c(c3)c(=O)c(C(=O)O)cn4C)c(N3CC[C@H]4CN(C)CC43)c12 (stereo partly shown) [Example 1.187]	–	–	> 730	0.096	< 0.098	< 0.098
CNc1cc(F)cc2c1[nH]c1ncc(-c3cnc4c(c3)c(=O)c(C(=O)O)cn4C)c(N3CCC(CN(C)CCOC)C3)c12 (stereo not shown) [Example 1.141]	–	–	485 (≈ 825 µM)	0.485	< 0.098	< 0.098
CNc1cc(F)cc2c1[nH]c1ncc(-c3cnc4c(c3)c(=O)c(C(=O)O)cn4CC3COCCN3)c(NC)c12 (stereo not shown) [Example 1.37]	55500	–	–	–	–	–
CNc1cc(F)c(F)c2c1[nH]c1ncc(-c3cnc4c(c3)c(=O)c(C(=O)O)cn4C)c(N3CCC4(CCCN(CCOC)C4)C3)c12 (stereo not shown) [Example 1.195]	–	–	29 (≈ 45.9 µM)	0.499	< 0.098	< 0.098
CNc1cc(F)c(F)c2c1[nH]c1ncc(-c3cnc4c(c3)c(=O)c(C(=O)O)cn4NC)c(N3C[C@@H](O)[C@@H](N(C)C)C3)c12 [Example 1.224]	–	–	570 (≈ 985 µM)	0.621	0.183	< 0.098
CNc1cc(F)c(F)c2c1[nH]c1ncc(-c3cnc4c(c3)c(=O)c(C(=O)O)cn4C)c(N3CCC4(CCCN(C)C4)C3)c12 (stereo not shown) [Example 1.190]	–	–	62 (≈ 106 µM)	0.143	12.2	< 0.098
CNc1cc(F)c(F)c2c1[nH]c1ncc(-c3cnc4c(c3)c(=O)c(C(=O)O)cn4C)c(N3CCC(N4CCCC4)CC3)c12 [Example 1.203]	–	–	303 (≈ 516 µM)	0.778	0.208	< 0.098
CCNn1cc(C(=O)O)c(=O)c2cc(-c3cnc4[nH]c5c(NC)cc(F)c(F)c5c4c3N3CC[C@@H](N(C)C)C3)cnc21 [Example 1.258]	–	–	17 (≈ 29.5 µM)	< 0.098	< 0.098	< 0.098
CNc1cc(F)c(F)c2c1[nH]c1ncc(-c3cnc4c(c3)c(=O)c(C(=O)O)cn4C)c(N3CCC4CN(C)CCC43)c12 (stereo not shown) [Example 1.243]	–	–	151 (≈ 263 µM)	0.961	0.712	0.403
CNc1cc(F)c(F)c2c1[nH]c1ncc(-c3cnc4c(c3)c(=O)c(C(=O)O)cn4C)c(N3CC4[C@H](CC[C@H]4N(C)C)C3)c12 (stereo partly shown) [Example 1.221]	–	–	49 (≈ 83.4 µM)	0.081	< 0.098	< 0.098
CNc1cc(F)c(F)c2c1[nH]c1ncc(-c3cnc4c(c3)c(=O)c(C(=O)O)cn4CC3CCCN3)c(N3CCOCC3)c12 (stereo not shown) [Example 1.11]	> 100000	–	–	0.847	–	–
CNc1cc(F)c(F)c2c1[nH]c1ncc(-c3cnc4c(c3)c(=O)c(C(=O)O)cn4C)c(N3CC4C(CN(C)C)CO[C@@H]4C3)c12 (stereo partly shown) [Example 1.88]	–	–	485 (≈ 803 µM)	0.289	< 0.098	< 0.098
CNc1cc(F)c(F)c2c1[nH]c1ncc(-c3cnc4c(c3)c(=O)c(C(=O)O)cn4C)c(N3C[C@@H](F)C[C@H]3CN(C)C)c12 [Example 7.01, 6-(4-((2S,4S)-2-((Dimethylamino)methyl)-4-fluoropyrrolidin-1-yl)-5,6-difluoro-8-(methylamino)-9H-pyrido[2,3-b]indol-3-yl)-1-methyl-4-oxo-1,4-dihydro-1,8-naphthyridine-3-carboxylic acid]	–	–	330 (≈ 569 µM)	0.28	< 0.098	< 0.098
CNc1cc(F)c(F)c2c1[nH]c1ncc(-c3cnc4c(c3)c(=O)c(C(=O)O)cn4C)c(N3C[C@H](C)[C@@H](N(C)C)C3)c12 [Example 1.160]	–	–	43 (≈ 76.6 µM)	0.131	< 0.098	< 0.098
CNc1cc(F)cc2c1[nH]c1ncc(-c3cnc4c(c3)c(=O)c(C(=O)O)cn4C)c(N3CC[C@H](N(C)C)C3)c12 [Example 1.253]	–	–	209 (≈ 395 µM)	0.092	< 0.098	< 0.098

Reference: US10662203B2, “Pyrido[2,3-b]indole compounds for the treatment and prophylaxis of bacterial infection” (Hoffmann-La Roche Inc., priority 2017, dated 2020)
